Values after ≈ are worked out from the molar mass of the structure shown. Read-outs that look alike come from different tables or passages of the source.

Data set [1] concerns the target Recombinant Human TACE/ADAM17 (Homo sapiens, UniProt P78536). Description: TACE inhibition assay, fluorogenic peptide substrate.
Data set [2] deals with T1, rhMMP-13 (Homo sapiens, UniProt P45452).
T1 construct: purchased R&D Systems (Minneapolis, MN, USA)
Put plainly: MMP inhibition assay, fluorogenic substrate cleavage kinetics. It counts as biochemical. How it is done:
(§1) MMP inhibition assays were carried out based on the kinetic effects of an inhibitor on the MMP-mediated catalytic cleavage of a fluorogenic substrate, namely Mca-Lys-Pro-Leu-Gly-Leu-Dpa-Ala-Arg-NH2, as reported by others previously[9],[23],[28]. In the first set of studies, the inhibitory effect of RYM was evaluated against 5 activated recombinant human (rh)MMPs, including rhMMP-2, rhMMP-7, rhMMP-9, rhMMP-12, and rhMMP-13.
(§2) The recombinant human MMPs (rhMMPs) including rhMMP-2, rhMMP-7, rhMMP-9, rhMMP-12, and rhMMP-13 were purchased from R&D Systems (Minneapolis, MN, USA). A buffer consisting of 50 mM Tris, 10 mM CaCl2, 150 mM NaCl, 0.05% Brij-35 (w/v) (pH 7.5, […]) was used for all the MMP assays. A mixture of the rhMMPs (500 ng, 9 µL in assay buffer) and p-aminophenylmercuric acetate (APMA, 1 µL, 10.0 mM in DMSO) was incubated at 37 °C (1 h/rhMMP-2, 2 h/rhMMP-7, 24 h/rhMMP-9, 4 h/rhMMP-12, and 2 h/rhMMP-13) according to the procedures described by R&D Systems. The activated MMPs were diluted to 500 µL in the assay buffer for inhibition assays. The assays were carried out in 96-well black non-binding surface microplates (Fisher Scientific). Seventy microliter (for inhibitor wells) and 80 µL (control wells) of the assay buffer were first added into each well as designed, followed by adding 10 µL (10 ng) of the activated MMP solutions into each well. The inhibitor solutions at 4 different concentrations (10 µL each well) were added into the corresponding inhibitor wells in the microplate which was then swirled at room temperature for 30 min. Ten microliter of the fluorogenic MMP substrate solutions (R&D SYSTEMS®) at 4 different concentrations (20.0, 30.0, 40.0, and 50.0 µM) in assay buffer were added into each well to make a total volume of 100 µL. […] Finally, the competitive inhibition constants (Ki value) were calculated from the mean velocity values, and related substrate (S) and inhibitor (I) concentrations using GraphPad Prism 6 by the following equation for competitive inhibition, where Vmax is the maximal velocity, the KM Michaelis-Menten constant: v=Vmax[S]/KM(1+[I]/Ki)+[S]

The target in data set [3] is T2, rhMMP-12 (Homo sapiens, UniProt P39900).
T2 construct: purchased R&D Systems (Minneapolis, MN, USA)
The data set is described as above. The conditions noted are these: mean ± SD of three experiments. It counts as biochemical. Here is the method: (§3) MMP inhibition assays were carried out based on the kinetic effects of an inhibitor on the MMP-mediated catalytic cleavage of a fluorogenic substrate, namely Mca-Lys-Pro-Leu-Gly-Leu-Dpa-Ala-Arg-NH2, as reported by others previously[9],[23],[28]. In the first set of studies, the inhibitory effect of RYM was evaluated against 5 activated recombinant human (rh)MMPs, including rhMMP-2, rhMMP-7, rhMMP-9, rhMMP-12, and rhMMP-13. […] RYM also had potent MMP inhibition with Ki values at nM concentrations.
Next, we evaluated the effect of ^99mTc-labeling on RYM MMP inhibition, using rhMMP-12 as a representative enzyme. A solution of ^99mTc-RYM1 prepared from 2 µg of RYM1 was decayed at −80 °C for two days, lyophilized, and re-dissolved in saline for MMP inhibition assays.
The recombinant human MMPs (rhMMPs) including rhMMP-2, rhMMP-7, rhMMP-9, rhMMP-12, and rhMMP-13 were purchased from R&D Systems (Minneapolis, MN, USA). […] The microplate fluorescence was measured at 320 nm (excitation) and 405 nm (emission) wavelengths for 30 min (1.44 min intervals, sensitivity 100, shaking intensity 4 and duration 30 s) by a fluorescent plate reader (BIO-TEK/Synergy HT) to generate the fluorescence kinetic curves and related mean velocity values (v), i.e. relative fluorescence units per min (RFU/min). […]

Data set [4] has as its target T3, rhMMP-7 (Homo sapiens, UniProt P09237).
T3 construct: purchased R&D Systems (Minneapolis, MN, USA)
T3 sequence (P09237 95-267): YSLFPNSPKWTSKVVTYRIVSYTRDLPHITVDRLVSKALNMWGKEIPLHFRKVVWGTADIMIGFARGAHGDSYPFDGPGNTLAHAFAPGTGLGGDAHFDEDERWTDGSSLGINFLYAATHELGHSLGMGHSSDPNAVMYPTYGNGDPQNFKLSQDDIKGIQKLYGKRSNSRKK
Described as above. The data set is classed as biochemical. The settings on record: mean ± SD of three experiments. How it is done:
as §3
The recombinant human MMPs (rhMMPs) including rhMMP-2, rhMMP-7, rhMMP-9, rhMMP-12, and rhMMP-13 were purchased from R&D Systems (Minneapolis, MN, USA). […] The microplate fluorescence was measured at 320 nm (excitation) and 405 nm (emission) wavelengths for 30 min (1.44 min intervals, sensitivity 100, shaking intensity 4 and duration 30 s) by a fluorescent plate reader (BIO-TEK/Synergy HT) to generate the fluorescence kinetic curves and related mean velocity values (v), i.e. relative fluorescence units per min (RFU/min). Finally, the competitive inhibition constants (Ki value) were calculated from the mean velocity values, and related substrate (S) and inhibitor (I) concentrations using GraphPad Prism 6 by the following equation for competitive inhibition, where Vmax is the maximal velocity, the KM Michaelis-Menten constant: v=Vmax[S]/KM(1+[I]/Ki)+[S]

For data set [5] the following is noted: background statement, no own test described; cited from earlier work.
A short description of data set [6]: Water solubility. The data set is classed as physicochemical. The settings on record: described as good water solubility.
Data set [7] has as its target T2, rhMMP-12. More on the design: method as in PMID 28360209. The conditions noted are these: value marked with citation; cited from earlier work.
Data set [8] concerns the target T4, rhMMP-9 (Homo sapiens, UniProt P14780).
T4 construct: purchased R&D Systems (Minneapolis, MN, USA)
Put plainly: MMP inhibition assay, fluorogenic substrate cleavage kinetics. The data set is classed as biochemical. The conditions noted are these: mean ± SD of three experiments. How it is done:
as §1, §2

The target in data set [9] is T5, rhMMP-2 (Homo sapiens, UniProt P08253).
T5 construct: purchased R&D Systems (Minneapolis, MN, USA)
T5 sequence (P08253 110-660): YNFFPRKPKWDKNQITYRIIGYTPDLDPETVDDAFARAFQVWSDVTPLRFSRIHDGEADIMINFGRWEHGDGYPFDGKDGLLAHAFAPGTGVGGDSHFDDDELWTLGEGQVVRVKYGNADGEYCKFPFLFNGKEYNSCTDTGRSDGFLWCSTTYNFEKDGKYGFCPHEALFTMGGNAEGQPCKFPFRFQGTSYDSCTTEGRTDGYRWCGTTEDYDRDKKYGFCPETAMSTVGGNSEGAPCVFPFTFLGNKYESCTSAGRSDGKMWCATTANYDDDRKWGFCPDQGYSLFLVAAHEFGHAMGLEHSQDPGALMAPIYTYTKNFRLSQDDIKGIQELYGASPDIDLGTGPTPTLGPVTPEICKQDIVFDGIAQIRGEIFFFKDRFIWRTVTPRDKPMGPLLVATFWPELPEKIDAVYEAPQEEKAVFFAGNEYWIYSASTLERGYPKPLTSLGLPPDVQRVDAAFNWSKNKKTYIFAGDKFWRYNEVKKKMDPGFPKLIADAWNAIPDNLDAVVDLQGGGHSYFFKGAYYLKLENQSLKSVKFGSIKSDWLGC
Described as above. The conditions noted are these: mean ± SD of three experiments. It counts as biochemical. How it is done:
as §1, §2

T2 sequence (P39900 106-470): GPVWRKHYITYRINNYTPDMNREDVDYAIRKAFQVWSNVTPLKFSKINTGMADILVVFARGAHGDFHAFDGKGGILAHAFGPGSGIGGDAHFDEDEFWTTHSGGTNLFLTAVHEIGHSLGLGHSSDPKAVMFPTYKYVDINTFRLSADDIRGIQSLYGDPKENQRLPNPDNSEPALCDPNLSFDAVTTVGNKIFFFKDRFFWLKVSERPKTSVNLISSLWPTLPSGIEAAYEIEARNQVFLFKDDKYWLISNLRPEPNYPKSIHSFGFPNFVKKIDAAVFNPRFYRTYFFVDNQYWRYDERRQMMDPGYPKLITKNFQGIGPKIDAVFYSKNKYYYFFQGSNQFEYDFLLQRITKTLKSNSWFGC
Sequence of Recombinant Human TACE/ADAM17 (P78536 215-824): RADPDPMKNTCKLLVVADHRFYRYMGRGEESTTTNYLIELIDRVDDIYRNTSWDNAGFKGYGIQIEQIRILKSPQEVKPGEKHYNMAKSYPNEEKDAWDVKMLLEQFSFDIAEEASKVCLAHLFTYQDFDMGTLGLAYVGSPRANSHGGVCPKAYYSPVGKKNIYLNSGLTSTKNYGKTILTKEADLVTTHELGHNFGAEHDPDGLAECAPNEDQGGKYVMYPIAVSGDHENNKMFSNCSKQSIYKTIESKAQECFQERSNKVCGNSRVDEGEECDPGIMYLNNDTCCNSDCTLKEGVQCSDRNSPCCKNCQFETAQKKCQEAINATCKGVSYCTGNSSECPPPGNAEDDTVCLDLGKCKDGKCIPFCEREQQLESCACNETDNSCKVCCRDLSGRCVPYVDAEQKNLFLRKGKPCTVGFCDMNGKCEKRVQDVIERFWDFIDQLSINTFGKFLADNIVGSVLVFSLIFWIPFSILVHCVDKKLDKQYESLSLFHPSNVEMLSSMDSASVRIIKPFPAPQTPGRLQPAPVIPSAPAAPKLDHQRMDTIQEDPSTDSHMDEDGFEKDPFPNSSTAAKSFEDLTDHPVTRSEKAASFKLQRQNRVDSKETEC
T4 sequence (P14780 107-707 limits assumed): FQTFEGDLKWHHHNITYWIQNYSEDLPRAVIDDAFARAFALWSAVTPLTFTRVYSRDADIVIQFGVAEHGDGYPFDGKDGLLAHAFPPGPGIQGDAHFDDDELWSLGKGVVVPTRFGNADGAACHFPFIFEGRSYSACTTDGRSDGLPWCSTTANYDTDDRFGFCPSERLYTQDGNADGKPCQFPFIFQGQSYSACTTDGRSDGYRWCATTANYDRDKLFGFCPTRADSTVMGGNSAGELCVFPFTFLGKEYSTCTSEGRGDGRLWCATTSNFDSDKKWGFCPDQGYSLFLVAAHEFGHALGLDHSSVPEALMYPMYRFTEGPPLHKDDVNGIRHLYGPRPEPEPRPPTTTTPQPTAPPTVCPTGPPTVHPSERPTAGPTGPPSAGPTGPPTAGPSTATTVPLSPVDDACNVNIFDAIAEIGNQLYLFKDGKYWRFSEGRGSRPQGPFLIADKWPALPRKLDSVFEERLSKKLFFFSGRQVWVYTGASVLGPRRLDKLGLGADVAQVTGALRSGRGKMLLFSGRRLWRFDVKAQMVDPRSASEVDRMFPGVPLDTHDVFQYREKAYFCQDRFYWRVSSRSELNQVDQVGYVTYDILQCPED

Turning to `CNC(=O)[C@H](Cc1c[nH]c2ccccc12)NC(=O)[C@@H](CC(=O)NO)CC(C)C` [GM-6001, reference compound], the Ki in [1] came to 113 ± 4.1 nM; in data set [2], 0.3 nM; in data set [3], 0.6 nM; in [4] it was 0.4 nM. Moreover, the “water solubility (in words)” value in [5] is “very poor water solubility”.
In the case of `CC(C)CC1C(=O)NC(C(=O)NCc2ccc(CNC(=O)c3ccc(NN)nc3)cc2)Cc2ccc(cc2)OCCCC1C(=O)NO` (centres unmarked) [RP805 precursor], the “water solubility (in words)” value in data set [5] is on record as “poor water solubility”.
Turning to `CC(C)CC1C(=O)NC(C(=O)NC(CCCNC(=N)N)C(=O)NCCNC(=O)c2ccc(NN)nc2)Cc2ccc(cc2)OCCCC1C(=O)NO` [RYM1, (6 S,7 R,10 S)-N^10-((S)-5-guanidino-1-((2-(6-hydrazinylnicotinamido)ethyl)amino)-1-oxopentan-2-yl)-N^6-hydroxy-7-isobutyl-8-oxo-2-oxa-9-aza-1(1,4)-benzenacyclo undecaphane-6,10-dicarboxamide], the Ki in data set [1] was 8.6 ± 2.2 nM; in [7], 2.2 ± 0.5 nM. The molecule also had a solubility in data set [6] of 10 mg/mL (≈ 13.8 mM).
For `CNC(=O)C(CCCNC(=N)N)NC(=O)C1Cc2ccc(cc2)OCCCC(C(=O)NO)C(CC(C)C)C(=O)N1` (centres unmarked) [RYM], the Ki in data set [1] was determined as 4.9 ± 1.3 nM; in [2] (mean ± SD of three experiments, read-out: Ki rhMMP-13), 15.3 ± 5.4 nM; in [8], 20.4 ± 2 nM; in data set [9], 5.8 ± 0.4 nM; in [3], 1 ± 0.5 nM; in [4] it was 17.2 ± 0.1 nM. In data set [6], the solubility is 10 mg/mL (≈ 17.8 mM).
Turning to `CNC(=O)[C@H](Cc1ccccc1)NC(=O)[C@H](CC(C)C)[C@H](CSc1cccs1)C(=O)NO` [batimastat (BB-94), batimastat], the “water solubility (in words)” value in data set [5] is listed as “very poor water solubility”.

What is called Ki is the equilibrium dissociation constant of an inhibitor or competing ligand from its target. By solubility is commonly meant the concentration that dissolves in the medium under given conditions.

The values are drawn from publication PMC6076275, “Novel Arginine-containing Macrocyclic MMP Inhibitors: Synthesis, ^99mTc-labeling, and Evaluation” (Scientific Reports, 2018).
